Experimental data reported in PubChem BioAssay AID330 (DTP/NCI, 2004).
Values joined by “and” are separate entries in the source; they are usually repeats but may differ in a detail not shown here. Equal values may be shown once. Inconclusive results and toxic doses are left out. How the source made its calls: active means survival T/C of 150% or more; inactive means T/C below 125% in these data.

Tested on: P388 leukemia ip, CD2F1 mice, survival T/C
Test: NCI In Vivo Anticancer Drug Screen. Data for tumor model P388 Leukemia (intraperitoneal) in CD2F1 (CDF1) mice
Settings: endpoint: median survival time, higher = longer survival
Summary of the method: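 Mice carrying the transplanted tumor received test compound or vehicle. Survival was recorded in each group, and the value is the treated-group measurement divided by that of the vehicle-treated control group.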

[1] = dose: 50.0 mg/kg/injection, schedule: Q01DX005 (ip), vehicle: saline
[2] = dose: 100.0 mg/kg/injection, schedule: Q01DX005 (ip), vehicle: saline
[3] = dose: 200.0 mg/kg/injection, schedule: Q01DX005 (ip), vehicle: saline
[4] = dose: 60.0 mg/kg/injection, schedule: Q01DX005 (ip), vehicle: saline with Tween-80
[5] = dose: 50.0 mg/kg/injection, schedule: Q01DX005 (ip), vehicle: Klucel (hydroxypropylcellulose) (HPC)
[6] = dose: 100.0 mg/kg/injection, schedule: Q01DX005 (ip), vehicle: Klucel (hydroxypropylcellulose) (HPC)
[7] = dose: 200.0 mg/kg/injection, schedule: Q01DX005 (ip), vehicle: Klucel (hydroxypropylcellulose) (HPC)
[8] = dose: 100.0 mg/kg/injection, schedule: Q01DX009 (ip), vehicle: Klucel (hydroxypropylcellulose) (HPC)
[9] = dose: 6.25 mg/kg/injection, schedule: Q01DX005 (ip), vehicle: saline with Tween-80
[10] = dose: 12.5 mg/kg/injection, schedule: Q01DX005 (ip), vehicle: saline with Tween-80

Measured: T/C

O=C1C(Cl)=C(Cl)C(=O)c2ccccc21
inactive: dose: 5.0 mg/kg/injection, schedule: Q01DX009 (ip), vehicle: saline with Tween-80 109 % of control | dose: 5.0 mg/kg/injection, schedule: Q04DX003 (ip), vehicle: saline with Tween-80 100 % of control | dose: 10.0 mg/kg/injection, schedule: Q01DX009 (ip), vehicle: saline with Tween-80 109 % of control | dose: 10.0 mg/kg/injection, schedule: Q04DX003 (ip), vehicle: saline with Tween-80 100 % of control | dose: 20.0 mg/kg/injection, schedule: Q01DX009 (ip), vehicle: saline with Tween-80 109 % of control | dose: 20.0 mg/kg/injection, schedule: Q04DX003 (ip), vehicle: saline with Tween-80 95 % of control

CCC1C(=O)OCC1Cc1cncn1C (stereo not drawn)
inactive: [1] 100 % of control | [2] 94 % of control | [3] 98 % of control

Cc1csnn1
inactive: dose: 15.0 mg/kg/injection, schedule: Q01DX005 (ip), vehicle: saline with Tween-80 105 % of control | dose: 30.0 mg/kg/injection, schedule: Q01DX005 (ip), vehicle: saline with Tween-80 100 % of control | [4] 102 % of control

NC(=O)C(CCCN=C(N)N)NC(=O)c1ccccc1 (stereo not drawn)
inactive: [1] 105 % of control | [2] 99 % of control | [3] 105 % of control

Cn1c(O)c(N=O)c(=O)[nH]c1=S
inactive: dose: 12.5 mg/kg/injection, schedule: Q04DX002 (ip), vehicle: saline 101 % of control | dose: 25.0 mg/kg/injection, schedule: Q04DX002 (ip), vehicle: saline 103 % of control

CCCCCCC[CH2][Sn]([CH2]CCCCCCC)([NH]S(=O)(=O)c1ccc(C)cc1)[NH]S(=O)(=O)c1ccc(C)cc1
inactive: dose: 25.0 mg/kg/injection, schedule: Q04DX003 (ip), vehicle: saline sonified 100 % of control | dose: 50.0 mg/kg/injection, schedule: Q04DX003 (ip), vehicle: saline sonified 122 % of control | dose: 100.0 mg/kg/injection, schedule: Q04DX003 (ip), vehicle: saline sonified 100 % of control

CC(=O)NNC(=O)C(Cl)Cl
inactive: dose: 12.5 mg/kg/injection, schedule: Q01DX009 (ip), vehicle: saline 92 % of control | dose: 25.0 mg/kg/injection, schedule: Q01DX009 (ip), vehicle: saline 89 % of control | dose: 50.0 mg/kg/injection, schedule: Q01DX009 (ip), vehicle: saline 101 % of control and 90 % of control

NC(C(=O)O)/C1=C/CCCCCC1 (stereo not drawn)
inactive: dose: 25.0 mg/kg/injection, schedule: Q01DX005 (ip), vehicle: Klucel (hydroxypropylcellulose) (HPC) 106 % of control | [5] 101 % of control | [6] 98 % of control | [7] 101 % of control

O=C(O)CN(CCN(CC(=O)O)CC(=O)O)CCN(CC(=O)O)CC(=O)O
inactive: [5] 103 % of control | [6] 108 % of control | [8] 91 % of control | [7] 103 % of control | dose: 200.0 mg/kg/injection, schedule: Q01DX009 (ip), vehicle: Klucel (hydroxypropylcellulose) (HPC) 94 % of control

CCCCN(CCCC)C(=N)c1ccc(OC)c(OC)c1
inactive: dose: 6.25 mg/kg/injection, schedule: Q01DX005 (ip), vehicle: saline 98 % of control | dose: 12.5 mg/kg/injection, schedule: Q01DX005 (ip), vehicle: saline 100 % of control | dose: 25.0 mg/kg/injection, schedule: Q01DX005 (ip), vehicle: saline 100 % of control

N#Cc1c(-c2ccccc2)c(-c2ccccc2)n[nH]c1=O
inactive: dose: 25.0 mg/kg/injection, schedule: Q04DX002 (ip), vehicle: distilled water + Tween-80 99 % of control | dose: 50.0 mg/kg/injection, schedule: Q04DX002 (ip), vehicle: distilled water + Tween-80 100 % of control | dose: 100.0 mg/kg/injection, schedule: Q01DX001 (ip), vehicle: saline 100 % of control | dose: 100.0 mg/kg/injection, schedule: Q04DX002 (ip), vehicle: distilled water + Tween-80 98 % of control | dose: 200.0 mg/kg/injection, schedule: Q01DX001 (ip), vehicle: saline 96 % of control | dose: 200.0 mg/kg/injection, schedule: Q04DX002 (ip), vehicle: distilled water + Tween-80 98 % of control | dose: 400.0 mg/kg/injection, schedule: Q01DX001 (ip), vehicle: saline 100 % of control

CCC(CCC(C)C1CCC2C3CC=C4CC(OC(=O)CCC(=O)O)CCC4(C)C3CCC12C)C(C)C (stereo not drawn)
inactive: dose: 100.0 mg/kg/injection, schedule: Q04DX003 (ip), vehicle: saline with Tween-80 95 % of control | dose: 200.0 mg/kg/injection, schedule: Q04DX003 (ip), vehicle: saline with Tween-80 87 % of control | dose: 400.0 mg/kg/injection, schedule: Q04DX003 (ip), vehicle: saline with Tween-80 87 % of control

CC1(c2ccc(N)cc2)NC(=O)NC1=O (stereo not drawn)
inactive: dose: 50.0 mg/kg/injection, schedule: Q01DX009 (ip), vehicle: Klucel (hydroxypropylcellulose) (HPC) 99 % of control | [8] 96 % of control

CC(=O)C1(C(C)=O)C2=C(C(=O)C(Cl)=C(Cl)C2=O)N2C=CC=CC21 (stereo not drawn)
inactive: dose: 100.0 mg/kg/injection, schedule: Q04DX002 (ip), vehicle: saline 102 % of control | dose: 200.0 mg/kg/injection, schedule: Q04DX002 (ip), vehicle: saline 88 % of control

CC1(c2ccc3c(c2)OCO3)OC(CCl)CS1 (stereo not drawn)
inactive: dose: 50.0 mg/kg/injection, schedule: Q01DX009 (ip), vehicle: saline with Tween-80 101 % of control | dose: 100.0 mg/kg/injection, schedule: Q01DX009 (ip), vehicle: saline with Tween-80 101 % of control | dose: 200.0 mg/kg/injection, schedule: Q01DX009 (ip), vehicle: saline with Tween-80 101 % of control

CN(C)CC/C=C1/c2ccccc2Sc2ccc(Cl)cc21
inactive: [9] 104 % of control | [10] 111 % of control

O=S(=O)(c1ccccc1)C1CC=C(c2ccccc2)CNC1 (stereo not drawn)
inactive: dose: 50.0 mg/kg/injection, schedule: Q01DX001 (ip), vehicle: Klucel (hydroxypropylcellulose) (HPC) 99 % of control | dose: 100.0 mg/kg/injection, schedule: Q01DX001 (ip), vehicle: Klucel (hydroxypropylcellulose) (HPC) 98 % of control | dose: 200.0 mg/kg/injection, schedule: Q01DX001 (ip), vehicle: Klucel (hydroxypropylcellulose) (HPC) 98 % of control | dose: 400.0 mg/kg/injection, schedule: Q01DX001 (ip), vehicle: Klucel (hydroxypropylcellulose) (HPC) 100 % of control

C1CCN2CC3CCCN4CCCC(C2C1)C34 (stereo not drawn)
inactive: dose: 6.2 mg/kg/injection, schedule: Q01DX007 (ip), vehicle: carboxymethylcellulose (CMC) 91 % of control and 100 % of control | dose: 12.5 mg/kg/injection, schedule: Q01DX007 (ip), vehicle: carboxymethylcellulose (CMC) 91 % of control | dose: 25.0 mg/kg/injection, schedule: Q01DX007 (ip), vehicle: carboxymethylcellulose (CMC) 91 % of control

CC(=N\O)/C(C)=N/O.CC(=N\O)/C(C)=N/O.CCCC1CC[N-]CC1.CCCC1CC[N-]CC1.CCCC1CC[N-]CC1.CCCC1CC[N-]CC1.[Cl-].[Cl-].[Cl][Rh][Cl].[Rh+3]
inactive: dose: 2.78 mg/kg/injection, schedule: Q01DX009 (ip), vehicle: saline with Tween-80 120 % of control

Cc1cc(=O)c(C#N)c(C)o1
inactive: [4] 98 % of control | dose: 120.0 mg/kg/injection, schedule: Q01DX005 (ip), vehicle: saline with Tween-80 97 % of control | dose: 240.0 mg/kg/injection, schedule: Q01DX005 (ip), vehicle: saline with Tween-80 90 % of control

CCSc1ccc(N2C(N)=NC(N)=NC2(C)C)cc1
inactive: [9] 103 % of control | [10] 103 % of control | dose: 25.0 mg/kg/injection, schedule: Q01DX005 (ip), vehicle: saline with Tween-80 118 % of control
